In ChEMBL document CHEMBL1129398, “Non-peptide glycoprotein IIb/IIIa antagonists. 11. Design and in vivo evaluation of 3,4-dihydro-1 (1H)-isoquinolinone-based antagonists and ethyl ester prodrugs” (J Med Chem, 1996):

What follows are compounds tested on Canis familiaris (assay: Tmax was measured by calculating maximum time taken for ADP -induced plat let aggregation n canine platelet rich plasma at dose of 0.5 mg/kg po; Tmax hours). Conditions: dog, in vivo.
Assay type: ADME, organism-based, Canis lupus familiaris
Parameters: dose 0.5 mg/kg

| T max | Structure (SMILES) |
| --- | --- |
| 1 | O=C(O)C[C@H](NC(=O)CN1CCc2ccc(N3CCNCC3)cc2C1=O)c1cccnc1 |

Each compound was assayed on Canis familiaris (assay: Tmax was measured by calculating maximum time taken for ADP -induced platelet aggregation in canine platelet rich plasma at dose of 0.5 mg/kg po; Tmax hours). Conditions: dog, in vivo.
Assay type: ADME, organism-based, Canis lupus familiaris
Parameters: dose 0.5 mg/kg

| T max | Structure (SMILES) |
| --- | --- |
| 2.5 | CCOC(=O)C[C@H](NC(=O)CN1CCc2ccc(N3CCNCC3)cc2C1=O)c1cccnc1 |

The compounds below were run on Canis familiaris (assay: Effect on inhibition of the extent of ex vivo ADP-induced aggregation in canine platelet rich plasma at dose of 0.1 mg/kg po). Conditions: Canis lupus familiaris.
Assay type: functional

| Structure (SMILES) | inhibition in vivo at 0.1 mg/kg |
| --- | --- |
| C#C[C@H](CC(=O)OCC)NC(=O)Cn1c(=O)[nH]c2ccc(N3CCNCC3)cc2c1=O | 0% |

These compounds were tested on Canis familiaris (assay: Effect on inhibition of the extent of ex vivo ADP-induced aggregation in canine platelet rich plasma at dose of 0.3 mg/kg po). Conditions: Canis lupus familiaris.
Assay type: functional

| Structure (SMILES) | inhibition in vivo at 0.3 mg/kg |
| --- | --- |
| C#C[C@H](CC(=O)OCC)NC(=O)CN1CCc2cc(F)c(N3CCNCC3)cc2C1=O | 100% |
| C#C[C@H](CC(=O)OCC)NC(=O)CN1CCc2ccc(C3CCNCC3)cc2C1=O | 40% |
| C#C[C@H](CC(=O)O)NC(=O)CN1CCc2ccc(C3CCNCC3)cc2C1=O | 100% |
| C#C[C@H](CC(=O)O)NC(=O)CN1CCc2ccc(N3CCNCC3)cc2C1=O | 80% |

These compounds were tested on Canis familiaris (assay: Effect on inhibition of the extent of ex vivo ADP-induced aggregation in canine platelet rich plasma at dose of 0.5 mg/kg po). Conditions: Canis lupus familiaris.
Assay type: functional

| Structure (SMILES) | inhibition in vivo at 0.5 mg/kg |
| --- | --- |
| C[C@H](CC(=O)O)NC(=O)CN1CCc2ccc(N3CCNCC3)cc2C1=O | 100% |
| C#C[C@H](CC(=O)O)NC(=O)Cn1c(=O)[nH]c2ccc(N3CCNCC3)cc2c1=O | 0% |
| CCOC(=O)C[C@H](NC(=O)CN1CCc2ccc(N3CCNCC3)cc2C1=O)c1cccnc1 | 75% |
| C#C[C@H](CC(=O)OCC)NC(=O)CN1CCc2ccc(N3CCNCC3)c(Cl)c2C1=O | 100% |
| C#C[C@H](CC(=O)O)NC(=O)CN1CCc2cc(Cl)c(N3CCNCC3)cc2C1=O | 80% |
| O=C(O)C[C@@H](CCc1ccccc1)NC(=O)CN1CCc2ccc(N3CCNCC3)cc2C1=O | 20% |
| C#C[C@H](CC(=O)O)NC(=O)CN1CCc2cc(F)c(N3CCNCC3)cc2C1=O | 95% |
| O=C(O)C[C@H](NC(=O)CN1CCc2ccc(N3CCNCC3)cc2C1=O)c1cccnc1 | 100% |

Organism: Homo sapiens
Assay: In vitro inhibition of human gel-filtered platelets
Assay type: functional
Conditions: not given

| Structure (SMILES) | IC50 |
| --- | --- |
| O=C(O)CCNC(=O)CN1CCc2ccc(N3CCNCC3)cc2C1=O | 140 nM |

Organism: Homo sapiens
Assay: in vitro inhibition of human gel-filtered platelets
Assay type: functional
Conditions: not given

| IC50 | Structure (SMILES) |
| --- | --- |
| 35 nM | C#C[C@H](CC(=O)O)NC(=O)CN1CCc2ccc(N3CCNCC3)c(Cl)c2C1=O |
| 6 nM | C#C[C@H](CC(=O)O)NC(=O)CN1CCc2ccc(C3CCNCC3)cc2C1=O |
| 19 nM | C#C[C@H](CC(=O)O)NC(=O)CN1CCc2cc(Cl)c(N3CCNCC3)cc2C1=O |
| 16 nM | O=C(O)C[C@@H](CCc1ccccc1)NC(=O)CN1CCc2ccc(N3CCNCC3)cc2C1=O |
| 15 nM | C#C[C@H](CC(=O)O)NC(=O)CN1CCc2cc(F)c(N3CCNCC3)cc2C1=O |
| 18 nM | O=C(O)C[C@H](NC(=O)CN1CCc2ccc(N3CCNCC3)cc2C1=O)c1ccc[n+]([O-])c1 |
| 12 nM | C#C[C@H](CC(=O)O)NC(=O)CN1CCc2ccc(N3CCNCC3)cc2C1=O |

| Structure (SMILES) | IC50 |
| --- | --- |
| C[C@H](CC(=O)O)NC(=O)CN1CCc2ccc(N3CCNCC3)cc2C1=O | 30 nM |
| C#C[C@H](CC(=O)O)NC(=O)CN1CCc2ccc(N3CCNCC3)cc2C1 | 320 nM |
| N[C@@H](CNC(=O)CN1CCc2ccc(N3CCNCC3)cc2C1=O)C(=O)O | 630 nM |

Organism: Homo sapiens
Assay: in vitro inhibition of human gel-filtered platelets using ADP agonist
Assay type: functional
Conditions: not given

| IC50 | Structure (SMILES) |
| --- | --- |
| 160 nM | C#C[C@H](CC(=O)O)NC(=O)CN1CCc2ccc(-c3ccncc3)cc2C1=O |
| 27 nM | C#C[C@H](CC(=O)O)NC(=O)Cn1c(=O)[nH]c2ccc(N3CCNCC3)cc2c1=O |
| 330 nM | C#C[C@H](CC(=O)O)NC(=O)Cn1cnc2ccc(N3CCNCC3)cc2c1=O |
| 81 nM | C#C[C@H](CC(=O)O)NC(=O)Cn1ccc2ccc(N3CCNCC3)cc2c1=O |
| > 300000 nM | O=C(O)C[C@H](NC(=O)CN1CCc2ccc(N3CCOCC3)cc2C1=O)c1cccnc1 |
| 13 nM | O=C(O)C[C@H](NC(=O)CN1CCc2ccc(N3CCNCC3)cc2C1=O)c1cccnc1 |
